Measured values taken from patent US6355472B2, “Method for producing nucleoside-5′-phosphate ester” (Ajinomoto Co., Inc., priority 1996, dated 2002).

What was measured:
[1] = tested on: acid phosphatase derived from Escherichia blattae; format: biochemical, Escherichia blattae JCM 1650
[2] = biological target: T1, acid phosphatase derived from Morganella morganii (Morganella morganii, UniProt P28581); format: biochemical, Morganella morganii NCIMB 10466
T1 construct: made in house; host or cells: Morganella morganii NCIMB 10466 (native strain, not recombinant; purified from cell-free extract)

[3] = biological target: T2, acid phosphatase sample derived from Morganella morganii (Morganella morganii, UniProt P28581); test: Phosphorylation reaction of various nucleosides by acid phosphatase sample; format: biochemical; settings: sodium pyrophosphate 10 g/dl, nucleoside 2 g/dl, enzyme 50 units/dl, pH 4.0, 30° C., 3 hours
T2 construct: made in house; host or cells: Morganella morganii NCIMB 10466 (native strain, not recombinant; purified from cell-free extract)
Description: (§1) Sodium pyrophosphate (10 g/dl) and inosine, guanosine, uridine, or cytidine (2 g/dl) as a phosphate group acceptor were dissolved in sodium acetate buffer (pH 4.0), to which the enzyme sample prepared in Example 1 was added so that its concentration was 50 units/dl. The reaction mixture was incubated at 30° C. for 3 hours while maintaining pH at 4.0.

E. coli JM109/pEPI380 [4] = test: Production of various nucleoside-5′-phosphate esters using new mutant acid phosphatase gene-containing strain; format: cell-based; settings: pyrophosphoric acid 15 g/dl, nucleoside 8 g/dl, cells 100 mg/dl dry weight, pH 4.0, 35° C., 12 hours
Description: E. coli JM109/pEPI380 having introduced therein the plasmid containing the new mutant acid phosphatase gene was inoculated into 50 ml of an L medium containing 100 μg/ml of ampicillin and 1 mM of IPTG, and incubated at 37° C. for 16 hours.
Pyrophosphoric acid (15 g/dl) and 8 g/dl of inosine, […], uridine or cytidine as a phosphate acceptor were dissolved in a 100 mM acetate buffer ([…]). To this was added the above-mentioned strain such that the concentration reached 100 mg/dl in terms of the dry cell weight. The reaction was conducted at 35° C. for 12 hours while maintaining the pH at 4.0. The phosphorylation proceeded well with any of the nucleosides to form and accumulate the corresponding nucleoside-5′-phosphate esters. The nucleotide formed was only the nucleoside-5′-phosphate ester, and the formation of a nucleoside-2′-phosphate ester and a nucleoside-3′-phosphate ester as by-products was not observed at all.

[5] = tested on: acid phosphatase sample derived from Escherichia blattae; test: Phosphorylation reaction of various nucleosides by acid phosphatase sample; format: biochemical; settings: sodium pyrophosphate 15 g/dl, nucleoside 3 g/dl, enzyme 50 units/dl, pH 4.0, 35° C., 3 hours
Description: as §1, with “(15” for “(10”, “(3” for “(2”, “g/dl)” for “g/dl) as a phosphate group acceptor”, “4” for “1”, “35°” for “30°”

[6] = tested on: Escherichia coli JM109/pEPI330; test: Production of various nucleoside-5′-phosphate esters using microbial cells of the mutant strain; format: cell-based; settings: sodium pyrophosphate 12 g/dl, nucleoside 6 g/dl, cells 200 mg/dl dry weight, pH 4.0, 35° C., 32 hours
Description: Escherichia coli JM109/pEPI330 into which the plasmid containing the gene encoding the acid phosphatase with lowered phosphomonoesterase activity had been introduced was inoculated to an L medium (50 ml) containing 100 μg/ml of ampicillin and 1 mM of IPTG, and it was cultivated at 37° C. for 16 hours.
Sodium pyrophosphate (12 g/dl), and inosine, guanosine, uridine, or cytidine (6 g/dl) as a phosphate group acceptor were dissolved in 100 mM sodium acetate buffer (pH 4.0), to which the microbial cells described above were added to give a cell concentration of 200 mg/dl as converted into a dry weight of the cells. The reaction mixture was incubated at 35° C. for 32 hours while maintaining pH at 4.0. Produced nucleotide contained only nucleoside-5′-phosphate ester. By-production of nucleoside-2′-phosphate ester and nucleoside-3′-phosphate ester was not observed at all.

[7] = biological target: T2, acid phosphatase sample derived from Morganella morganii; test: Production of 5′-inosinic acid from various phosphate group donors by acid phosphatase sample; format: biochemical; settings: inosine 2 g/dl, phosphate group donor 10 g/dl, enzyme 50 units/dl, pH 4.0, 30° C., 3 hours
Description: (§2) Inosine (2 g/dl) and sodium tripolyphosphate, sodium polyphosphate (trade name: Polygon P, produced by Chiyoda Chemical), disodium phenylphosphate, or disodium carbamyl phosphate (10 g/dl) as a phosphate group donor were dissolved in sodium acetate buffer (pH 4.0), to which the enzyme sample prepared in Example 1 was added so that its concentration was 50 units/dl. The reaction mixture was incubated at 30° C. for 3 hours while maintaining pH at 4.0.

[8] = tested on: Escherichia coli JM109/pEPI330; test: Production of 5′-inosinic acid from various phosphate group donors using microbial cells of the mutant strain; format: cell-based; settings: inosine 6 g/dl, phosphate group donor 12 g/dl, cells 200 mg/dl dry weight, pH 4.0, 35° C., 32 hours
Description: Escherichia coli JM109/pEPI330 into which the plasmid containing the mutant acid phosphatase gene had been introduced was inoculated to an L medium (50 ml) containing 100 μg/ml of ampicillin and 1 mM of IPTG, and it was cultivated at 37° C. for 16 hours.
Inosine (6 g/dl) and sodium tripolyphosphate, sodium polyphosphate (trade name: Polygon P, produced by Chiyoda Chemical), disodium phenylphosphate, or disodium carbamyl phosphate (12 g/dl) as a phosphate group donor were dissolved in 100 mM sodium acetate buffer (pH 4.0), to which the microbial cells described above were added to give a cell concentration of 200 mg/dl as converted into a dry weight of the cells. The reaction mixture was incubated at 35° C. for 32 hours while maintaining pH at 4.0. 5′-Inosinic acid was efficiently produced and accumulated by using any of the phosphate group donors. However, the accumulated amount of 5′-inosinic acid was the highest when polyphosphoric acid was used as the phosphate group donor.

[9] = tested on: acid phosphatase sample derived from Escherichia blattae; test: Production of 5′-inosinic acid from various phosphate group donors by acid phosphatase sample; format: biochemical; settings: inosine 2 g/dl, phosphate group donor 10 g/dl, enzyme 50 units/dl, pH 4.0, 35° C., 3 hours
Description: as §2, with “Example 4” for “Example 1”, “at 35°” for “at 30°”

E. coli JM109/pEPI380 [10] = test: Production of 5′-inosinic acid from various phosphate donors using new mutant acid phosphatase gene-containing strain; format: cell-based; settings: inosine 6 g/dl, phosphate donor 15 g/dl, cells 100 mg/dl dry weight, pH 4.0, 35° C., 12 hours
Description: E. coli JM109/pEPI380 having introduced therein the plasmid containing the new mutant acid phosphatase gene was inoculated into 50 ml of an L medium containing 100 μg/ml of ampicillin and 1 mM of IPTG, and incubated at 37 C. for 16 hours.
Inosine (6 g/dl) and 15 g/dl of a tripolyphosphate, a polyphosphate (“Polygon P”, a trade name for a product of Chiyoda Kagaku K.K.), […] or disodium carbamylphosphate were dissolved in a 100-mM acetate buffer (pH 4.0). To this was added the above-mentioned strain such that the concentration reached 100 mg/dl in terms of the dry cell weight. The reaction was conducted at 35° C. for 12 hours while maintaining the pH at 4.0. 5′-Inosinic acid was formed and accumulated at good efficiency with any of the phosphate donors. Especially when a polyphosphate was used as a phosphate donor, 5′-inosinic acid was accumulated in the largest amount.

T1 sequence (P28581 21-249): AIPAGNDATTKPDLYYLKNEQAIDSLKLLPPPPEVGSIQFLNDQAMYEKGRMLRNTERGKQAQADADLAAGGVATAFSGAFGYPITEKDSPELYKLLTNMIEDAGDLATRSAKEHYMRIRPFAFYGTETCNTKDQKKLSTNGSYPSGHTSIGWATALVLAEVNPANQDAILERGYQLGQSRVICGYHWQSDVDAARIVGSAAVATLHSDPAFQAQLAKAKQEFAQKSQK
T2 sequence (P28581 21-249): as above

O=C(O)CI [iodoacetic acid]
Effect of the addition of metal ion and inhibitor on activity [1]: inhibited
Effect of the addition of metal ion and inhibitor on activity [2]: inhibited

[Cu+2] [Cu^2+]
Effect of the addition of metal ion and inhibitor on activity [1]: inhibited
Effect of the addition of metal ion and inhibitor on activity [2]: inhibited

Nc1nc2c(ncn2[C@@H]2O[C@H](CO)[C@@H](O)[C@H]2O)c(=O)[nH]1 [Guanosine, guanosine]
Amount Produced (nucleoside-5′-ester) [3]: 1.90 g/dL
Amount of the Product (nucleoside-5′-phosphate ester) (E. coli JM109/pEPI380 [4]): 5.78 g/dL
Amount Produced (nucleoside-5′-ester) [5]: 1.05 g/dL
Amount Produced (nucleoside-5′-phosphate ester) [6]: 4.77 g/dL

OC[C@H]1O[C@@H](n2cnc3c(O)ncnc32)[C@H](O)[C@@H]1O [Inosine, inosine]
Amount Produced (nucleoside-5′-ester) [3]: 2.60 g/dL
Amount of the Product (nucleoside-5′-phosphate ester) (E. coli JM109/pEPI380 [4]): 12.05 g/dL
Amount Produced (nucleoside-5′-ester) [5]: 1.56 g/dL
Amount Produced (nucleoside-5′-phosphate ester) [6]: 7.45 g/dL

[Ag+2] [Ag^2+]
Effect of the addition of metal ion and inhibitor on activity [1]: inhibited
Effect of the addition of metal ion and inhibitor on activity [2]: inhibited

[Fe+2] [Fe^2+]
Effect of the addition of metal ion and inhibitor on activity [1]: inhibited

O=c1ccn([C@@H]2O[C@H](CO)[C@@H](O)[C@H]2O)c(=O)[nH]1 [Uridine, uridine]
Amount Produced (nucleoside-5′-ester) [3]: 1.30 g/dL
Amount of the Product (nucleoside-5′-phosphate ester) (E. coli JM109/pEPI380 [4]): 13.28 g/dL
Amount Produced (nucleoside-5′-ester) [5]: 1.87 g/dL
Amount Produced (nucleoside-5′-phosphate ester) [6]: 8.93 g/dL

O=P(O)(O)OP(=O)(O)OP(=O)(O)O [Sodium tripolyphosphate, sodium tripolyphosphate]
Produced 5′-inosinic acid [7]: 2.10 g/dL
Produced 5′-inosinic acid [8]: 5.96 g/dL
Produced 5′-inosinic acid [9]: 1.20 g/dL
Amount of 5′-inosinic acid formed (E. coli JM109/pEPI380 [10]): 10.84 g/dL

[Pb+2] [Pb^2+]
Effect of the addition of metal ion and inhibitor on activity [1]: inhibited
Effect of the addition of metal ion and inhibitor on activity [2]: inhibited

Nc1ccn([C@@H]2O[C@H](CO)[C@@H](O)[C@H]2O)c(=O)n1 [Cytidine, cytidine]
Amount Produced (nucleoside-5′-ester) [3]: 0.98 g/dL
Amount of the Product (nucleoside-5′-phosphate ester) (E. coli JM109/pEPI380 [4]): 10.65 g/dL
Amount Produced (nucleoside-5′-ester) [5]: 1.22 g/dL
Amount Produced (nucleoside-5′-phosphate ester) [6]: 6.60 g/dL

CC(=O)OP(=O)([O-])[O-].[K+].[Li+] [potassium lithium acetylphosphate]
Amount of 5′-inosinic acid formed (E. coli JM109/pEPI380 [10]): 10.65 g/dL

[Hg+2] [Hg^2+]
Effect of the addition of metal ion and inhibitor on activity [1]: inhibited
Effect of the addition of metal ion and inhibitor on activity [2]: inhibited

O=P([O-])([O-])Oc1ccccc1.[Na+].[Na+] [Disodium phenylphosphate, disodium phenylphosphate]
Produced 5′-inosinic acid [7]: 2.33 g/dL
Produced 5′-inosinic acid [8]: 7.60 g/dL
Produced 5′-inosinic acid [9]: 1.50 g/dL
Amount of 5′-inosinic acid formed (E. coli JM109/pEPI380 [10]): 12.84 g/dL

NC(=O)OP(=O)([O-])[O-].[Na+].[Na+] [Disodium carbamyl phosphate, disodium carbamyl phosphate]
Produced 5′-inosinic acid [7]: 2.54 g/dL
Produced 5′-inosinic acid [8]: 7.73 g/dL
Produced 5′-inosinic acid [9]: 1.53 g/dL
Amount of 5′-inosinic acid formed (E. coli JM109/pEPI380 [10]): 12.42 g/dL

sodium polyphosphate
Produced 5′-inosinic acid [7]: 2.72 g/dL
Produced 5′-inosinic acid [8]: 8.84 g/dL
Produced 5′-inosinic acid [9]: 1.79 g/dL
Amount of 5′-inosinic acid formed (E. coli JM109/pEPI380 [10]): 13.35 g/dL
